Molecule `O=S(=O)(NCc1ccncc1)c1ccc(C#Cc2cnn3c(C(F)(F)F)cc(-c4ccc(C(F)(F)F)cc4)nc23)s1` [Example 272, 5-[7-Trifluoromethyl-5-(4-trifluoromethyl-phenyl)-pyrazolo[1,5-a]pyrimidin-3-ylethynyl]-thiophene-2-sulfonic acid (pyridin-4-ylmethyl)-amide] came in with a melting point of 170 °C.

Molecule `NS(=O)(=O)c1cccc(C#Cc2cnn3c(C(F)(F)F)cc(-c4cccc(C(F)(F)F)c4)nc23)c1` [Example 118, 3-[7-Trifluoromethyl-5-(3-trifluoromethyl-phenyl)-pyrazolo[1,5-a]pyrimidin-3-ylethynyl]-benzenesulfonamide] yielded a melting point of 193 °C. Molecule `N#Cc1cc(-c2ccc(C(F)(F)F)cc2)cn2c(C#Cc3ccc(S(N)(=O)=O)s3)cnc12` [Example 214, 5-[8-Cyano-6-(4-trifluoromethyl-phenyl)-imidazo[1,2-a]pyridin-3-ylethynyl]-thiophene-2-sulfonic acid amide] came in with a melting point of 267 to 269 °C. The molecule `Cc1cc(-c2ccc(Cl)cc2)nc2c(C#Cc3ccc(N)nc3)cnn12` [Example 295, 5-[5-(4-Chloro-phenyl)-7-methyl-pyrazolo[1,5-a]pyrimidin-3-ylethynyl]-pyridin-2-ylamine] registered a melting point of 244 to 246 °C. Take `CC(C)(CO)NS(=O)(=O)c1cnc(C#Cc2cnn3c(C4CC4)cc(-c4ccc(Cl)cc4)nc23)s1` [Example 64, 2-[5-(4-Chloro-phenyl)-7-cyclopropyl-pyrazolo[1,5-a]pyrimidin-3-ylethynyl]-thiazole-5-sulfonic acid (2-hydroxy-1,1-dimethyl-ethyl)-amide]: the melting point was 204 to 207 °C. The molecule `COCCNS(=O)(=O)c1cccc(C#Cc2cnn3c(C(F)(F)F)cc(-c4ccc(C(F)(F)F)cc4)nc23)c1` [Example 131, N-(2-Methoxy-ethyl)-3-[7-trifluoromethyl-5-(4-trifluoromethyl-phenyl)-pyrazolo[1,5-a]pyrimidin-3-ylethynyl]-benzenesulfonamide] registered a melting point of 186 to 188 °C. The molecule `Cc1cc(-c2ccc(C(F)(F)F)cc2)cn2c(C#Cc3ccc(S(N)(=O)=O)s3)cnc12` [Example 212, 5-[8-Methyl-6-(4-trifluoromethyl-phenyl)-imidazo[1,2-a]pyridin-3-ylethynyl]-thiophene-2-sulfonic acid amide] came in with a melting point of 270 °C.

The molecule `OCc1ccc(C#Cc2cnn3c(C(F)(F)F)cc(-c4ccc(C(F)(F)F)cc4)nc23)cc1` [Example 184, {4-[7-Trifluoromethyl-5-(4-trifluoromethyl-phenyl)-pyrazolo[1,5-a]pyrimidin-3-ylethynyl]-phenyl}-methanol] showed a melting point of 200 to 202 °C. Then `FC(F)(F)c1ccc(-c2cc(C(F)(F)F)n3ncc(C#Cc4ccc(C5CC5)nc4)c3n2)cc1` [Example 10, 3-(2-Cyclopropyl-pyridin-5-ylethynyl)-7-trifluoromethyl-5-(4-trifluoromethyl-phenyl)-pyrazolo[1,5-a]pyrimidine], with 138 to 140 °C; and `O=S(=O)(Nc1cccnc1)c1ccc(C#Cc2cnn3c(C(F)(F)F)cc(-c4ccc(C(F)(F)F)cc4)nc23)s1` [Example 279, 5-[7-Trifluoromethyl-5-(4-trifluoromethyl-phenyl)-pyrazolo[1,5-a]pyrimidin-3-ylethynyl]-thiophene-2-sulfonic acid pyridin-3-ylamide], with 248 °C; and `Cc1cc(-c2ccc(C(F)(F)F)cc2)nc2c(C#Cc3cccc(S(N)(=O)=O)c3)cnn12` [Example 151, 3-[7-Methyl-5-(4-trifluoromethyl-phenyl)-pyrazolo[1,5-a]pyrimidin-3-ylethynyl]-benzenesulfonamide], with 214 to 216 °C. Consider `Nc1ncc(C#Cc2cnc3c(F)cc(-c4ccc(C(F)(F)F)cc4)cn23)cn1` [Example 240, 5-[8-Fluoro-6-(4-trifluoromethyl-phenyl)-imidazo[1,2-a]pyridin-3-ylethynyl]-pyrimidin-2-ylamine], for which the melting point was 286 °C.

Molecule `CC(C)(CO)NS(=O)(=O)c1cccc(C#Cc2cnn3c(C(F)(F)F)cc(-c4ccc(Cl)cc4)nc23)c1` [Example 95, 3-[5-(4-Chloro-phenyl)-7-trifluoromethyl-pyrazolo[1,5-a]pyrimidin-3-ylethynyl]-N-(2-hydroxy-1,1-dimethyl-ethyl)-benzenesulfonamide] showed a melting point of 226 to 229 °C.

`COc1ccc(C#Cc2cnn3c(C4CC4)cc(-c4ccc(Cl)cc4)nc23)cc1S(=O)(=O)NC(C)(C)CO` [Example 69, 5-[5-(4-Chloro-phenyl)-7-cyclopropyl-pyrazolo[1,5-a]pyrimidin-3-ylethynyl]-N-(2-hydroxy-1,1-dimethyl-ethyl)-2-methoxy-benzenesulfonamide] displayed a melting point of 253 to 256 °C. `NS(=O)(=O)c1cccc(C#Cc2cnn3c(C(F)F)cc(-c4cccc(C(F)(F)F)c4)nc23)c1` [Example 167, 3-[7-Difluoromethyl-5-(3-trifluoromethyl-phenyl)-pyrazolo[1,5-a]pyrimidin-3-ylethynyl]-benzenesulfonamide] returned a melting point of 199 °C. For `O=S(=O)(NCCO)c1ccc(C#Cc2cnn3c(C(F)(F)F)cc(-c4ccc(C(F)(F)F)cc4)nc23)cc1` [Example 125, N-(2-Hydroxy-ethyl)-4-[7-trifluoromethyl-5-(4-trifluoromethyl-phenyl)-pyrazolo[1,5-a]pyrimidin-3-ylethynyl]-benzenesulfonamide] the value was 206 to 208 °C. In turn, `Nc1ccc(C#Cc2cnc3c(C(F)(F)F)cc(-c4ccc(C(F)(F)F)cc4)nn23)cn1` [Example 232, 5-[8-Trifluoromethyl-6-(4-trifluoromethyl-phenyl)-imidazo[1,2-b]pyridazin-3-ylethynyl]-pyridin-2-ylamine] had a melting point of 267 °C. Consider `CC(C)(C)NS(=O)(=O)c1cncc(C#Cc2cnn3c(C(F)(F)F)cc(-c4ccc(C(F)(F)F)cc4)nc23)c1` [Example 17, 5-[7-Trifluoromethyl-5-(4-trifluoromethyl-phenyl)-pyrazolo[1,5-a]pyrimidin-3-ylethynyl]-pyridine-3-sulfonic acid tert-butylamide], for which the melting point worked out at 224 °C. `Cc1cc(CNS(=O)(=O)c2ccc(C#Cc3cnn4c(C(F)(F)F)cc(-c5ccc(C(F)(F)F)cc5)nc34)s2)cc(C)n1` [Example 283, 5-[7-Trifluoromethyl-5-(4-trifluoromethyl-phenyl)-pyrazolo[1,5-a]pyrimidin-3-ylethynyl]-thiophene-2-sulfonic acid (2,6-dimethyl-pyridin-4-ylmethyl)-amide] displayed a melting point of 200 °C.

Molecule `NS(=O)(=O)c1ccc(C#Cc2cnc3ccc(-c4ccc(C(F)(F)F)cc4)cn23)s1` [Example 217, 5-[6-(4-Trifluoromethyl-phenyl)-imidazo[1,2-a]pyridin-3-ylethynyl]-thiophene-2-sulfonic acid amide] had a melting point of 206 to 210 °C. For `CCOc1cccc(-c2cc(C(F)F)n3ncc(C#Cc4ccc(S(N)(=O)=O)cc4)c3n2)c1` [Example 187, 4-[7-Difluoromethyl-5-(3-ethoxy-phenyl)-pyrazolo[1,5-a]pyrimidin-3-ylethynyl]-benzenesulfonamide] the value was 245 °C.
